# Patent publication US20210246164A1, “PEPTIDIC PROTEIN KINASE C INHIBITORS AND USES THEREOF” (UNIVERSITE DE GENEVE, priority 2016, published 2021)
# Where a SMILES comes first, the peptide text is derived from it. Where no end group is shown, it is not given here. The star is where a group is joined. Myristoyl = CCCCCCCCCCCCCC(=O)*
# Tests used:
# [1] = tested on: primary human nasal epithelial cell monolayers; assay: Permeabilization of fluorescein-conjugated dextran (FD) across nasal epithelial monolayers (cumulative release, Papp); assay type: cell-based
# Description: (§1) To assess the potential effects of peptides of the invention on the permeabilization of therapeutic molecules, fluorescein-conjugated dextrans (FD) were used to as a model for assessing paracellular drug transport (apical to basolateral) across the epithelial monolayer.
# (§2) To ensure that the integrity of the monolayer was maintained during the course of the experiment, trans-epithelial electrical resistance (TEER) was measured before and after these studies, as described below.
# (§3) Mucilair™ human primary nasal and bronchial epithelial cells (Epithelix sarl, Geneva, Switzerland) were used (Huang et. al., 2013, Toxicol. in Vitro 27: 1151-1156).
# (§4) Before each experiment, the culture medium was removed from each compartment and the monolayer was washed once with 200 μl of saline (0.9%) and once with warm Hanks' Balanced Salt Solution (HBSS) (37° C.). In the basolateral compartment, 600 μL of pre-warmed HBSS was placed and the cells were returned to the incubator at 37° C. for 30 minutes to equilibrate. After equilibration, the peptides of the invention were applied to the apical side of an epithelial monolayer 5 minutes prior to the addition of FD solution. Peptide 1 according to the invention (P1 of SEQ ID NO: 2) was tested in comparison with comparative peptides C1 (SEQ ID NO: 4) and C2 (SEQ ID NO: 5). FD having a molecular weight (MW) of 4 and 150 kDa were used.
# (§5) All peptides were used at a final concentration of 10 μM. The vehicle was used as a control (CTRL). The FD solution was added to the apical compartment to make a final volume of 200 μl. Samples of 100 μL were taken from the basal compartment of each well every 30 minutes over a period of 150 minutes, with each volume being replaced with equal amount of fresh warm buffer to maintain sink condition. The fluorescence of FD was measured in black 96-well plates using a fluorescence plate reader (BioTek Synergy Mx plate reader, BioTek Instruments GmbH, Lucerne, Switzerland), using excitation and emission wavelengths of 485 and 520 nm, respectively. Cumulative release (ng) corresponds to the actual amount of drug released cumulatively and corresponds to the amount in the suspension medium at any time plus the amount of the drug lost during each sampling.
# (§6) Trans-epithelial electrical resistance (TEER): After addition of 200 μl of culture medium to the apical compartment of the tissue cultures, resistance was measured across cultures with an EVOMX volt-ohm-meter (World Precision Instruments UK, Stevenage) in triplicate for each time point. The TEER values (Ω) were converted normalized by using the following formula: TEER (Ωcm^2)=(resistance value (Ω)−100 (Ω))×0.33 (cm^2), where 100Ω is the resistance of the membrane and 0.33 cm^2 is the total surface of the epithelium.
# (§7) To assess the role of the membrane penetrating group (myristoyl) in peptides of the invention in the enhancing of the permeability of macromolecules through epithelial cell layers, the permeabilizing capacity of peptide P1 of the invention was compared to a comparative peptide C3 (SEQ ID NO: 6) corresponding to the same peptide without the myristoyl group. The permeabilizing capacity of a peptide P2 (SEQ ID NO: 3) of the invention was also assessed. Uptake experiments and TEER were conducted as described in Example 2.
# (§8) To assess the duration of the permeabilization effect of the peptide of the invention, apparent permeability of peptides of various lengths was evaluated as follows. Apparent permeability refers to the amount of released FD at that time point when the sample is collected.
# (§9) The tested Peptides, uptake experiments and TEER were as described in Example 2.
# (§10) Apparent permeability of FD: The apparent permeability (Papp) of FD was calculated using equation 1: Papp=(dQ/dt)/A*C0 (1)
# [2] = tested on: primary human bronchial epithelial cell monolayers; assay: Permeabilization of fluorescein-conjugated dextran (FD) across bronchial epithelial monolayers (cumulative release, Papp); assay type: cell-based
# Description: as §1, §2, §3, §4, §5, §6, §7, §8, §9, §10
# in vitro = settings: human, Caco-2 cells
# Description: (§12) Viability of Caco-2 cells (human intestinal epithelial cell line) was determined by a cell proliferation assay using WST-1 based colorimetric assay. […] WST-1 reagent (diluted 1:10 in cell culture medium) was added as described in the instruction manual (Roche Diagnostics GMBH, Mannheim, Germany). Following 1-3 h incubation at 37° C. with the peptides or controls, absorbance at 450 nm (reference at 690 nm) was measured by a BioTek Synergy Mx plate reader. Percentage of cell viability was calculated based on the absorbance measured relative to that of cells exposed to only culture medium (control group). Sodium dodecyl sulfate (SDS) at 2% was used as a positive control for cell toxicity.
# [3] = tested on: TJ proteins occludin and ZO-1 in primary human nasal epithelial cell monolayers; assay: Immunofluorescence of TJ proteins occludin and ZO-1, nasal cells (confocal microscopy); assay type: cell-based; settings: 50 μM peptide, 2 hours
# Description: (§11) The effect of peptides of the invention on the tight junction structure of human primary nasal and bronchial epithelial cells were evaluated by confocal microscopy as follows. Mucilair™ human primary nasal and bronchial epithelial cells (Epithelix Sarl, Geneva, Switzerland) were incubated with 50 μM of peptide of the invention P1 or comparative peptides C1 and C2 for 2 hours and washed twice with phosphate buffered saline (PBS) (without Ca^2+/Mg^2+) at 37° C. Cells were fixed with methanol/acetone (50:50) for 5 minutes at […], air-dried, and washed with TBST (mixture of tris-buffered saline (TBS) and Polysorbate 20). Cell monolayers were blocked using a solution of 3% bovine serum albumin (BSA) in PBS for 60 minutes at room temperature and incubated with primary antibody against occludin (Cat: 331588, Invitrogen, Zug, Switzerland); dilution (1:200)) and ZO-1 (zonula occludens-1 protein) (Cat: 339194, Invitrogen, Zug, Switzerland); dilution (1:200)) in dilution buffer. Samples were mounted (Vectashield mounting media with DAPI (4′,6-diamidino-2-phenylindole); Vector Laboratories) and assessed within the next 24 hours by using a laser-scanning confocal microscope (CLSM; Plan-Apochromat 63/1.40 (oil) DIC objective, Zeiss Axiovert 100M-LSM 510; Carl Zeiss, Oberkochen, Germany). […]
# [4] = tested on: TJ proteins occludin and ZO-1 in primary human bronchial epithelial cell monolayers; assay: Immunofluorescence of TJ proteins occludin and ZO-1, bronchial cells (confocal microscopy); assay type: cell-based; settings: 50 μM peptide, 2 hours
# Description: as §11
# [5] = tested on: OCA_EGFR19del cultures (HCC827 cells); assay: Tumor size in OncoCilAir non-small cell lung cancer model; assay type: cell-based
# Excerpt: HCC827 cells (lung adenocarcinoma) mutated in the tyrosine kinase domain of the EGFR (epidermal growth factor receptor) were used (model OncoCilAir™, wherein Non-Small Cell Lung Cancer (NSCLC) cells were tagged with green fluorescent protein (GFP)).
# Tumour morphometry was resolved by fluorescence microscopy using a Zeiss Axiocam microscope platform. Growth curves were based on various images were acquired every 2 days and the area of the green fluorescent protein positive (GFP^+) tumour was measured using the Image-Pro Plus Software (MediaCybernetics, Rockville, Md., USA). For each time point, the ratio of the total area occupied by tumours to the size of the insert was calculated and expressed as percentage of day 0, at the start of the treatment (tumor occupancy). Identical analyses settings, i.e. fixed fluorescence intensity threshold and fixed size threshold ([…]) were applied to all processed images. Percentage of tumour growth inhibition was calculated using the formula: (1−[tumour occupancy in treatment group/tumour occupancy in control group]×100).
# [6] = tested on: Antigen-specific serum antibodies (IgG total and IgG1); assay: Intranasal immunization with Ova, antigen-specific serum antibodies by ELISA; assay type: in vivo, mice; settings: i.n. 5 μg Ova with 5 μg P1 vs Ova alone; after three immunizations
# Excerpt: The effect of peptides of the invention on the efficacy of mucosal vaccines has been investigated by administering a combination of P1 with a soluble protein antigen and induced immunization has been investigated.
# 6 week-old female C57-BL/6 mice were purchased from Charles River Laboratories (Harlan, France) and hosted under standard conditions following the corresponding guidelines of Animal Ethic Committee. Mice (n=5) were immunized by intranasal (i.n.) administration under anesthesia on days 0, 14, and 28 with the following immunogens: saline (PBS) as a negative control, ovalbumin (Ova) (in NaCl 0.9% solution) or Ova+P1 Ova/dose (5 μg) (mixture of solution of Ova in NaCl 0.9% and solution of P1 in NaCl 0.9%) as a mixture were administered to each animal group in 12 μL (6 μL per nostril). P1 was used at a concentration of 5 μg/dose. […]
# Antigen-specific serum antibodies (IgG total and IgG1) were measured by ELISA (enzyme-linked immunosorbent assay). […] Plates were washed 4 times, and HRP was quantified by adding 100 μl of TMB (3,3′,5,5′-Tetramethylbenzidine) substrate (Pierce Protein Research Products; Rockford, Ill.). Antibody titers were determined at the midpoint of the optical density-log dilution curves after subtraction of the naive background, and none-responding mice were given an arbitrary titer of 10.
# Caco-2 cells = assay: Cell viability, WST-1 based colorimetric assay; settings: 24 hours
# Description: as §12
# [7] = tested on: non-small cell lung cancer (NSCLC); settings: compared to chemotherapies; cited from earlier work
# [8] = peptide 10 μM apical, 150 minutes, vs control
# [9] = P1 1 μM apical + gefitinib 1 μM apical
molecule,measurement,setting,value
"CCCCCCCCCCCCCC(=O)N[C@@H](CO)C(=O)N[C@H](C(=O)N[C@@H](Cc1ccc(O)cc1)C(=O)N[C@@H](CCCNC(=N)N)C(=O)N[C@@H](CCCNC(=N)N)C(=O)NCC(=O)N[C@@H](C)C(=O)N[C@@H](CCCNC(=N)N)C(=O)N[C@@H](CCCNC(=N)N)C(=O)N[C@@H](Cc1c[nH]c2ccccc12)C(=O)N[C@@H](CCCNC(=N)N)C(=O)N[C@@H](CCCCN)C(=O)N[C@@H](CC(C)C)C(=O)O)[C@@H](C)CC [Peptide C1, reference compound] (Myristoyl-SIYRRGARRWRKL-OH; C-terminus assumed)",reversibility of permeabilization of FD 4 kDa (decrease in Papp overtime),"[1]; peptide 10 μM, 150 minutes",reversible
same,reversibility of permeabilization of FD 4 kDa (decrease in Papp overtime),"[2]; peptide 10 μM, 150 minutes",reversible
same,"viability at 24 h, 50 µM",in vitro,55.2%
same,"viability at 24 h, 100 µM",in vitro,34%
"CCCCCCCCCCCCCC(=O)N[C@@H](C)C(=O)N[C@@H](CCCNC(=N)N)C(=O)N[C@@H](CCCNC(=N)N)C(=O)N[C@@H](Cc1c[nH]c2ccccc12)C(=O)N[C@@H](CCCNC(=N)N)C(=O)O [Peptide P1, Myr-ARRWR] (Myristoyl-ARRWR-OH)",permeability of FD of 150 kDa (cumulative release),[1]; [8],significantly increases the permeability
same,permeability of fluorescein conjugated dextran of 4 kDa (cumulative release),[1]; [8],increased the permeability of the fluorescein conjugated dextran of 4 kDa in a significant manner
same,Papp for FD of 150 kDa over time,"[1]; peptide 10 μM, 150 minutes",immediate increase in the first 30 minutes and steadily decreased therefrom
same,reversibility of permeabilization of FD 4 kDa (decrease in Papp overtime),"[1]; peptide 10 μM, 150 minutes",reversible
same,"reversibility of the permeabilization effect, FD of 150 kDa","[1]; peptide 10 μM, FIG. 6",Reversibility of the permeabilization effect was also observed
same,permeability of FD of 150 kDa (cumulative release),[2]; [8],significantly increases the permeability
same,permeability of fluorescein conjugated dextran of 4 kDa (cumulative release),[2]; [8],increased the permeability of the fluorescein conjugated dextran of 4 kDa in a significant manner
same,Papp for FD of 150 kDa over time,"[2]; peptide 10 μM, 150 minutes",immediate increase in the first 30 minutes and steadily decreased therefrom
same,reversibility of permeabilization of FD 4 kDa (decrease in Papp overtime),"[2]; peptide 10 μM, 150 minutes",reversible
same,"reversibility of the permeabilization effect, FD of 150 kDa","[2]; peptide 10 μM, FIG. 6",Reversibility of the permeabilization effect was also observed
same,redistribution of occludin and ZO-1,[3],causes desired TJ proteins redistribution
same,redistribution of occludin and ZO-1,[4],causes desired TJ proteins redistribution
same,effect of combination on tumour size vs gefitinib alone,[5]; [9],significantly more efficacious than the gefitinib alone
same,time at which maximal therapeutic effect was obtained,[5]; [9],3 days
same,effect of combination on tumour progression vs gefitinib alone,[5]; P1 1 μM apical + gefitinib 1 μM basal,significantly potentiated the effects of the drug on tumour progression
same,effect of combination on tumour progression vs gefitinib alone,[5]; P1 1 μM apical + gefitinib 5 μM basal,significantly potentiated the effects of the drug on tumour progression
same,effect on tumor size,"[5]; P1 alone 1 μM apical, 6 expositions over 14 days, vs DMSO",had no effect on tumor size
same,Ova-specific serum IgG1 response,[6],significantly higher
same,Ova-specific serum IgG (total) response,[6],significantly higher
same,"viability at 24 h, 100 µM",in vitro,76.7%
same,toxicity on Caco-2 cells,Caco-2 cells; 50 μM,did not show any toxicity
same,concentration non-toxic to cells,Caco-2 cells,at least 50 μM
"COc1cc2ncnc(Nc3ccc(F)c(Cl)c3)c2cc1OCCCN1CCOCC1 [gefitinib, N-(3-Chloro-4-fluorophenyl)-7-methoxy-6-(3-morpholinopropoxy) quinazolin-4-amine]",progression free survival (PFS),[7],7.7-12.9 months
"ARRWR (not fully specified (N-terminus)) [Peptide C3, same peptide as P1 without the myristoyl group, reference compound]",permeability of fluorescein conjugated dextran of 4 kDa (cumulative release),[1]; [8],did not show significant difference in permeabilization ability compared to the negative control
same,permeability of fluorescein conjugated dextran of 4 kDa (cumulative release),[2]; [8],did not show significant difference in permeabilization ability compared to the negative control
Myr-AKRWR (Myristoyl-AKRWR) [Peptide P2],permeability of fluorescein conjugated dextran of 4 kDa (cumulative release),[1]; [8],increased the permeability of the fluorescein conjugated dextran of 4 kDa in a significant manner
"N-acetyl-ARR [Peptide C2, reference compound]",permeability of fluorescein conjugated dextran of 4 kDa (cumulative release),[1]; [8],not differing from control
same,permeability of fluorescein conjugated dextran of 4 kDa (cumulative release),[2]; [8],not differing from control
